Test results as given in US20150246888A1, “ENOYL REDUCTASE INHIBITORS WITH ANTIBACTERIAL ACTIVITY” (priority 2012, published 2015).
In brackets after ≈: the same amount, converted by molar mass. Read-outs that look alike come from different tables or passages of the source.

Legend:
S. aureus = test: Cell viability as a function of time (measured with depolarization); assay type: cell-based
[1] = system: S. aureus (ATCC number 29213); test: microbe, parasite or virus in culture; assay type: cell-based
S. aureus membrane = test: Membrane depolarization as a function of time; assay type: cell-based
FtuFabI = FtuFabI (Francisella tularensis subsp. tularensis, UniProt Q5NGQ3); test: biochemical; design: species or system F. tularensis subsp. tularensis Schu4; conditions: for Ki: read-out: Ki^2 (Calculated using the Cheng-Prusoff Equation)
MRSA (ATCC number 43300) = test: microbe, parasite or virus in culture; assay type: cell-based, methicillin-resistant Staphylococcus aureus; conditions: Staphylococcus aureus
[2] = system: E. coli (BW251113 strain); test: microbe, parasite or virus in culture; assay type: cell-based; conditions: Escherichia coli
[3] = system: B. anthracis, ΔANR strain; test: microbe, parasite or virus in culture; assay type: cell-based; conditions: Bacillus anthracis
[4] = system: E. coli TolC-, an efflux defective mutant; test: microbe, parasite or virus in culture; assay type: cell-based; conditions: Escherichia coli
[5] = system: F. tularensis, strain Utah 112; test: microbe, parasite or virus in culture; assay type: cell-based; conditions: Francisella tularensis, UTAH112
FabI = FabI (Francisella tularensis subsp. tularensis, UniProt Q5NGQ3); test: biochemical; design: species or system F. tularensis subsp. tularensis Schu4; conditions: read-out: Ki^1 (Experimental Ki)
[6] = read-out: IC50, Inhibition of FabI

Chain of FtuFabI (Q5NGQ3 1-260 limits assumed): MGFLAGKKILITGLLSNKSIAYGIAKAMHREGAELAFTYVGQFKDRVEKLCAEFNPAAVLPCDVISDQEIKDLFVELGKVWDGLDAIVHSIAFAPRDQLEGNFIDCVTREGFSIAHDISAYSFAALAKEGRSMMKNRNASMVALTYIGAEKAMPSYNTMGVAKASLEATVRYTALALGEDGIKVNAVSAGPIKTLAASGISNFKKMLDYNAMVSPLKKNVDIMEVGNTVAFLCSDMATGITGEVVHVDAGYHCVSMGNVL
Chain of FabI (Q5NGQ3 1-260 limits assumed): as above

Row | SMILES | MIC ([1]; Staphylococcus aureus) [µg/mL] | IC50 (FtuFabI) [nM] | MIC (MRSA (ATCC number 43300)) [µg/mL] | MIC [2] [µg/mL] | MIC [3] [µg/mL] | MIC [4] [µg/mL] | MIC [5] [µg/mL] | further results
1 | Oc1cc(Cl)ccc1Oc1ccc(Cl)cc1Cl [Triclosan, reference compound] | 0.4 (≈ 1.38 µM) |  |  |  |  |  |  | Cell viability (done at 2X MIC) (S. aureus): Possibly bacteriostatic initially but then bactericidal after overnight incubation; Depolarization (done at 2X MIC) (S. aureus membrane): Strongly depolarizing
2 | COc1ccc(Cn2cnc3cc4c(cc32)CC(C)(C)C4)cc1C [Compound 11, 1-(4-methoxy-3-methylbenzyl)-6,6-dimethyl-1,5,6,7-tetrahydroindeno[5,6-d]imidazole] | > 12.5 | 14 | > 12.5 | > 12.5 | > 12.5 | > 12.5 | > 12.5 | 
3 | COc1ccc(Cn2cnc3cc(C)c(C)cc32)cc1OC [Compound 22, 1-(3,4-dimethoxybenzyl)-5,6-dimethyl-1H-benzo[d]imidazole] |  | 7600 |  |  |  |  |  | 
4 | COc1ccc(Cn2cnc3cc4c(cc32)CCC4)cc1C [Compound 8, 1-(4-methoxy-3-methylbenzyl)-1,5,6,7-tetrahydroindeno[5,6-d]imidazole] | > 12.5 |  | > 12.5 | > 12.5 | > 12.5 | 12.5 (≈ 42.8 µM) | 5.5 (≈ 18.8 µM) | IC50 (FtuFabI; [6]): 5 nM; MBC [5]: 12.5 µg/mL (≈ 42.8 µM)
5 | Cc1cc2ncn(Cc3ccc4c(c3)OCO4)c2cc1C [Compound 17, 1-(benzo[d][1,3]dioxol-5-ylmethyl)-5,6-dimethyl-1H-benzo[d]imidazole] |  | 4400 |  |  |  |  |  | 
6 | COc1ccc(Cn2cnc3cc4c(cc32)CCC4)cc1OC [Compound 23, 1-(3,4-dimethoxybenzyl)-1,5,6,7-tetrahydroindeno[5,6-d]imidazole] |  | 5900 |  |  |  |  |  | 
7 | Cc1cc2ncn(Cc3ccc(O)c(C)c3)c2cc1C [Compound 18, 4-((5,6-dimethyl-1H-benzo[d]imidazol-1-yl)methyl)-2-methylphenol] |  | 1300 |  |  |  |  |  | 
8 | c1cc2c(cc1Cn1cnc3cc4c(cc31)CCC4)OCO2 [Compound 19, 1-(benzo[d][1,3]dioxol-5-ylmethyl)-1,5,6,7-tetrahydroindeno[5,6-d]imidazole] | 9.4 (≈ 32.2 µM) | 2200 | 10.9 (≈ 37.3 µM) | > 12.5 | > 12.5 | > 12.5 | 6.3 (≈ 21.6 µM) | MBC ([1]; Staphylococcus aureus): > 25 µg/mL; MBC (MRSA (ATCC number 43300)): > 25 µg/mL; MBC [5]: 37.5 µg/mL (≈ 128 µM)
9 | c1cc2c(cc1Cn1cnc3cc4c(cc31)CCCC4)OCO2 [Compound 14, 1-(benzo[d][1,3]dioxol-5-ylmethyl)-5,6,7,8-tetrahydro-1H-naphtho[2,3-d]imidazole] | 4.7 (≈ 15.3 µM) |  | 6.3 (≈ 20.6 µM) | > 12.5 | > 12.5 | 9.4 (≈ 30.7 µM) | 4.7 (≈ 15.3 µM) | Cell viability (done at 2X MIC) (S. aureus): Clearly bacteriostatic; MIC [1]: 4.7 µg/mL (≈ 15.3 µM); MBC ([1]; Staphylococcus aureus): > 25 µg/mL; Depolarization (done at 2X MIC) (S. aureus membrane): Clearly no depolarization seen; IC50 (FtuFabI; read-out: IC50): 320 nM; IC50 (FtuFabI; [6]): 320 nM; Ki (FtuFabI): 260 nM; MBC (MRSA (ATCC number 43300)): > 25 µg/mL; Ki (FabI): 330 ± 40 nM; MBC [4]: 25 µg/mL (≈ 81.6 µM); MBC [5]: 18.8 µg/mL (≈ 61.4 µM)
10 | N#CC(C#N)=NNc1cccc(Cl)c1 [CCCP, carbonyl cyanide m-chlorophenylhydrazone, reference compound] | 1 (≈ 4.89 µM) |  |  |  |  |  |  | Cell viability (done at 2X MIC) (S. aureus): bactericidal; Depolarization (done at 2X MIC) (S. aureus membrane): Highly depolarizing
11 | COc1ccc(Cn2cnc3cc(C)c(C)cc32)cc1 [Compound 16, 1-(4-methoxybenzyl)-5,6-dimethyl-1H-benzo[d]imidazole] |  | 4700 |  |  |  |  |  | 
12 | CC(c1ccc(Cl)c(Cl)c1)n1cnc2cc3c(cc21)CCC3 (centres unmarked) [Compound 3, 1-(1-(3,4-dichlorophenyl)ethyl)-1,5,6,7-tetrahydroindeno[5,6-d]imidazole] | 5.5 (≈ 16.6 µM) | 43 | 6.3 (≈ 19 µM) | > 12.5 | 3.9 (≈ 11.8 µM) | 3.1 (≈ 9.36 µM) | 3.9 (≈ 11.8 µM) | Cell viability (done at 2X MIC) (S. aureus): Bacteriostatic; MIC [1]: 5.5 µg/mL (≈ 16.6 µM); MBC ([1]; Staphylococcus aureus): > 25 µg/mL; Depolarization (done at 2X MIC) (S. aureus membrane): Initially depolarizing (in first 60 min) but cells ‘recover’ and regain polarization compared to control with no compound; MBC (MRSA (ATCC number 43300)): 12.5 µg/mL (≈ 37.7 µM); MBC [3]: 4.7 µg/mL (≈ 14.2 µM); MBC [4]: 12.5 µg/mL (≈ 37.7 µM); MBC [5]: 9.4 µg/mL (≈ 28.4 µM)
13 | CC1(C)S[C@@H]2[C@H](NC(=O)[C@H](N)c3ccccc3)C(=O)N2[C@H]1C(=O)O [Ampicillin, reference compound] |  |  |  |  |  |  |  | Cell viability (done at 2X MIC) (S. aureus): bactericidal; MIC [1]: 0.4 µg/mL (≈ 1.14 µM); Depolarization (done at 2X MIC) (S. aureus membrane): No depolarization
14 | Cc1cc2ncn(C(C)c3ccc(Cl)c(Cl)c3)c2cc1C (centres unmarked) [Compound 2, 1-(1-(3,4-dichlorophenyl)ethyl)-5,6-dimethyl-1H-benzo[d]imidazole] | 12.5 (≈ 39.2 µM) |  | 12.5 (≈ 39.2 µM) | > 12.5 | 12.5 (≈ 39.2 µM) | 6.3 (≈ 19.7 µM) | > 12.5 | IC50 (FtuFabI; [6]): 370 nM; MBC [4]: 12.5 µg/mL (≈ 39.2 µM)
15 | COc1ccc(Cn2cnc3cc4c(cc32)CCCC4)cc1 [Compound 24, 1-(4-methoxybenzyl)-5,6,7,8-tetrahydro-1H-naphtho[2,3-d]imidazole] | > 12.5 | 330 | > 12.5 | > 12.5 | > 12.5 | 12.5 (≈ 42.8 µM) | 4.7 (≈ 16.1 µM) | MBC [4]: > 25 µg/mL; MBC [5]: 18.8 µg/mL (≈ 64.3 µM)
16 | COc1ccc(Cn2cnc3cc(C)c(C)cc32)cc1C [Compound 7, 1-(4-methoxy-3-methylbenzyl)-5,6-dimethyl-1H-benzo[d]imidazole] | > 12.5 | 250 | > 12.5 | > 12.5 | > 12.5 | 12.5 (≈ 44.6 µM) | > 12.5 | 
17 | CC(c1ccc(Cl)c(Cl)c1)n1cnc2cc3c(cc21)COC3 (centres unmarked) [Compound 6, 1-(1-(3,4-dichlorophenyl)ethyl)-5,7-dihydro-1H-isobenzofuro[5,6-d]imidazole] | > 12.5 |  | > 12.5 | > 12.5 | > 12.5 | > 12.5 | > 12.5 | IC50 (FtuFabI; [6]): 890 nM
18 | Nc1ccc(Cn2cnc3cc4c(cc32)CCC4)cc1 [Compound 21, 4-((6,7-dihydroindeno[5,6-d]imidazol-1(5H)-yl)methyl)aniline] | > 12.5 | 12000 | > 12.5 | > 12.5 | > 12.5 | > 12.5 | > 12.5 | 
19 | COc1ccc(Cn2cnc3cc4c(cc32)CCC4)cc1 [Compound 20, 1-(4-methoxybenzyl)-1,5,6,7-tetrahydroindeno[5,6-d]imidazole] | > 12.5 | 840 | > 12.5 | > 12.5 | > 12.5 | > 12.5 | 5.5 (≈ 19.8 µM) | MBC [5]: 37.5 µg/mL (≈ 135 µM)
20 | CC(c1ccc(Cl)c(Cl)c1)n1cnc2cc3c(cc21)CC(C)(C)C3 (centres unmarked) [Compound 5, 1-(1-(3,4-dichlorophenyl)ethyl)-6,6-dimethyl-1,5,6,7-tetrahydroindeno[5,6-d]imidazole] | 4.7 (≈ 13.1 µM) |  | 4.7 (≈ 13.1 µM) | > 12.5 | > 12.5 | > 12.5 | > 12.5 | MBC ([1]; Staphylococcus aureus): > 12.5 µg/mL; IC50 (FtuFabI; [6]): 240 nM; MBC (MRSA (ATCC number 43300)): > 12.5 µg/mL
21 | Cc1cc2ncn(Cc3ccc(Cl)c(Cl)c3)c2cc1C [Compound 1, 1-(3,4-dichlorobenzyl)-5,6-dimethyl-1H-benzo[d]imidazole] | 25 (≈ 81.9 µM) |  |  |  |  |  |  | Cell viability (done at 2X MIC) (S. aureus): Bactericidal intially but cells recover and compound is not lethal overnight; Depolarization (done at 2X MIC) (S. aureus membrane): Depolarization seen initially in the first 60 min; IC50 (FtuFabI; [6]): 300 nM
22 | CC1(C)Cc2cc3ncn(Cc4ccc5c(c4)OCO5)c3cc2C1 [Compound 13, 1-(benzo[d][1,3]dioxol-5-ylmethyl)-6,6-dimethyl-1,5,6,7-tetrahydroindeno[5,6-d]imidazole] | > 12.5 | 29 | > 12.5 | > 12.5 | > 12.5 | 12.5 (≈ 39 µM) | > 12.5 | 
23 | COc1ccc(Cn2cnc3cc4c(cc32)CCCC4)cc1OC [Compound 10, 1-(3,4-dimethoxybenzyl)-5,6,7,8-tetrahydro-1H-naphtho[2,3-d]imidazole] | > 12.5 |  | > 12.5 | > 12.5 | > 12.5 | > 12.5 | > 12.5 | IC50 (FtuFabI; read-out: IC50): 1360 nM; IC50 (FtuFabI; [6]): 1360 nM; Ki (FtuFabI): 1100 nM; Ki (FabI): 1430 ± 270 nM
24 | CC1(C)Cc2cc3ncn(Cc4ccc5c(c4)CC[C@@H]5O)c3cc2C1 [Compound 15, (S)-5-((6,6-dimethyl-6,7-dihydroindeno[5,6-d]imidazol-1(5H)-yl)methyl)-2,3-dihydro-1H-inden-1-ol] | > 12.5 | 41 | > 12.5 | > 12.5 | > 12.5 | > 12.5 | > 12.5 | 
25 | COc1ccc(Cn2cnc3cc4c(cc32)CC(C)(C)C4)cc1OC [Compound 12, 1-(3,4-dimethoxybenzyl)-6,6-dimethyl-1,5,6,7-tetrahydroindeno[5,6-d]imidazole] | > 12.5 | 71 | > 12.5 | > 12.5 | > 12.5 | > 12.5 | > 12.5 | 
